From patent US11046680B1, “Heteroaryl-substituted triazoles as APJ receptor agonists” (priority 2016, dated 2021)

What was measured:
[1] = test system: heart failure rat model (MI Rat Model); experiment: In vivo cardiac contractility in heart failure (MI) rat model; parameters: species or system Lewis rat; details: heart failure rats in vivo, acute settings
Procedure: Evidence for Improvement in Cardiac Contractility In Vivo in Heart Failure Rat Model
Based on the ex vivo findings in isolated heart assay, APJ agonists were dosed in vivo to investigate the translation of cardiac contractility in in vivo settings. Male Lewis rats (Charles River, USA) at 2-3 months of age were used for the study. Heart failure was induced by permanent ligation of the left descending coronary artery which results in injury to the heart with an ejection fraction of <35%. APJ agonists were administered dose dependently acutely for a period of 30 min. Administration of example compounds lead to an increase in cardiac contractility as measured by dP/dtmax (derivative of left ventricular pressure) (Table 41).

human APJ receptor = human APJ receptor (Homo sapiens (Human), UniProt P35414); experiment: biochemical; assay type: biochemical; details: [35S]GTPγS binding, CHO membranes expressing human APJ receptor; read-out: Activity hAPJ SPA EC50 IP
human APJ receptor, sequence (P35414 whole entry): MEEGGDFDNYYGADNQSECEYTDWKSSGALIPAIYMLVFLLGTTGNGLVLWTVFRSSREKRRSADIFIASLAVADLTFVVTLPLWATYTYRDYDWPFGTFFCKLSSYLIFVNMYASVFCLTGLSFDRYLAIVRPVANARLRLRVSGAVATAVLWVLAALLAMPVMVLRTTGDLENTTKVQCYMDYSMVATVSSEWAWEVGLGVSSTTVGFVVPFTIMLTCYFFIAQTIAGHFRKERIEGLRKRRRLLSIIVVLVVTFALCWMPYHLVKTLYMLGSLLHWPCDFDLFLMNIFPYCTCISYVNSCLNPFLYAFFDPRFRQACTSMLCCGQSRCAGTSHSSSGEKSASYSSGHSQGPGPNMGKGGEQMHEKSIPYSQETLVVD
In short: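 GTPγS binding on membranes from CHO cells stably expressing FLAG-tagged human APJ, with optimized GDP, MgCl2 and NaCl; incubated 90 min at RT before imaging read-out.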

[2] = cited from earlier work

For `C[C@H](CS)C(=O)N1CCC[C@H]1C(=O)O` [Captopril], the “improvement in contractility or ejection fraction” value [1] was “does not show a marked improvement in contractility or ejection fraction”.

For “(R)-N-(4-(2,6-dimethoxyphenyl)-5-(1H-pyrazol-3-yl)-4H-1,2,4-triazol-3-yl)-1-(5-fluoropyrimidin-2-yl)propane-2-sulfonamide and (S)-N-(4-(2,6-dimethoxyphenyl)-5-(1H-pyrazol-3-yl)-4H-1,2,4-triazol-3-yl)-1-(5-fluoropyrimidin-2-yl)propane-2-sulfonamide [Example 71.0]”, the EC50 (human APJ receptor) was 41 nM.

In the case of “(R)-N-(4-(2,6-dimethoxyphenyl)-5-(pyrimidin-2-yl)-4H-1,2,4-triazol-3-yl)-1-(5-fluoropyrimidin-2-yl)propane-2-sulfonamide and (S)-N-(4-(2,6-dimethoxyphenyl)-5-(pyrimidin-2-yl)-4H-1,2,4-triazol-3-yl)-1-(5-fluoropyrimidin-2-yl)propane-2-sulfonamide [Example 56.0]”, the EC50 (human APJ receptor) is reported as 74 nM.

In the case of “(R)-N-(4-(2,6-dimethoxyphenyl)-5-(pyrimidin-4-yl)-4H-1,2,4-triazol-3-yl)-1-(5-fluoropyrimidin-2-yl)propane-2-sulfonamide and (R)-N-(4-(2,6-dimethoxyphenyl)-5-(pyrimidin-4-yl)-4H-1,2,4-triazol-3-yl)-1-(5-fluoropyrimidin-2-yl)propane-2-sulfonamide [Example 31.0]”, the EC50 (human APJ receptor) is reported as 190 nM.

In the case of “(R)-N-(4-(2,6-dimethoxyphenyl)-5-(pyrimidin-5-yl)-4H-1,2,4-triazol-3-yl)-1-(5-fluoropyrimidin-2-yl)propane-2-sulfonamide and (S)-N-(4-(2,6-dimethoxyphenyl)-5-(pyrimidin-5-yl)-4H-1,2,4-triazol-3-yl)-1-(5-fluoropyrimidin-2-yl)propane-2-sulfonamide [Example 48.0]”, the EC50 (human APJ receptor) is reported as 150 nM.

For “Apelin-13 (QRPRLSHKGPMPF; Apelin-13; UniProt Q9ULZ1 65-77, looked up)”, the plasma half-life [2] is listed as less than 5 min.
